In US20210070748A1, “INHIBITORS OF BRUTONS TYROSINE KINASE” (Pharmacyclics LLC, priority 2015, published 2021):

Experiments:
BTK-WT = biological target: T1, BTK-WT (Homo sapiens, UniProt Q06187); test: Btk in vitro inhibitory activity (one of Method A TR-FRET, Method B electrophoretic mobility shift, Method C radiometric filter binding); type: biochemical; details: D-compounds panel data; read-out: IC50 BTK-WT
T1 construct: purified from insect cells as a full-length construct containing an N-terminal 6X-His tag; His6 (N); made in house; host or cells: insect cells (baculovirus Sf21 in Method B)
T1 sequence (Q06187 whole entry): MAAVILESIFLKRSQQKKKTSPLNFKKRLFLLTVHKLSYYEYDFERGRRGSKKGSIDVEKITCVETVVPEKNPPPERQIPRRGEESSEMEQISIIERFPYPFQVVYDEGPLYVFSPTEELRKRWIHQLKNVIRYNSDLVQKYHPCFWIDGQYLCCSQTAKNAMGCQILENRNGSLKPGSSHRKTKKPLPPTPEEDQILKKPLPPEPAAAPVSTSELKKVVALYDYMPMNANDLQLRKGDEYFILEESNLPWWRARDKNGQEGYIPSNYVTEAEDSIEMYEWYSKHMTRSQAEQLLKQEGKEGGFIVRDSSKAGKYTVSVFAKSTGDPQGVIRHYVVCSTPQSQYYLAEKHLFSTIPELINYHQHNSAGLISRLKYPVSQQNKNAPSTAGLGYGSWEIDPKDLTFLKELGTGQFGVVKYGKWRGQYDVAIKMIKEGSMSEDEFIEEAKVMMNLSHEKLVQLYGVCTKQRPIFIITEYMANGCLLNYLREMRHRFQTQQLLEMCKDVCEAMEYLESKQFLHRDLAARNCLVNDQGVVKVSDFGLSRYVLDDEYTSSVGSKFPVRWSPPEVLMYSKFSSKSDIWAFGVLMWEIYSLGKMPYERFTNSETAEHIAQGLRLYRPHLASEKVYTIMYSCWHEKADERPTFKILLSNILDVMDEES

LCK = LCK (Homo sapiens, UniProt P06239); test: Inhibition of a panel of kinases, in vitro HotSpot kinase assay: LCK; type: biochemical; details: D-compounds panel data; 1 μM ATP; read-out: IC50 LCK
Sequence of LCK (P06239 whole entry): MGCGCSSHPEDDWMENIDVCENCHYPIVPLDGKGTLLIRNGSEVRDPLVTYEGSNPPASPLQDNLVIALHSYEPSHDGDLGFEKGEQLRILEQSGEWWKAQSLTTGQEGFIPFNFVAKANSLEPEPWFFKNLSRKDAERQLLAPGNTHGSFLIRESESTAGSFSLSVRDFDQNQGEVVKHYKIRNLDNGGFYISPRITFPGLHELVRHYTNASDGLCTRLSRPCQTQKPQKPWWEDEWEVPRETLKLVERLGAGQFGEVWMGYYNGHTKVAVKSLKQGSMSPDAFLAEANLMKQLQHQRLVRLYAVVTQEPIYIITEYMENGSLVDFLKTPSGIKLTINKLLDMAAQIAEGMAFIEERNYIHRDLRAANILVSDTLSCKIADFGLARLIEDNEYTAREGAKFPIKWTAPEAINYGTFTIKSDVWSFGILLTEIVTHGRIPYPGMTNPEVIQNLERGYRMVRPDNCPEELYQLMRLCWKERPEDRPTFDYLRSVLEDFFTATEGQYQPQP

SMILES | IC50 (BTK-WT) [nM] | IC50 (LCK) [nM]
C[C@@H]1[C@H](NC(=O)c2ccc(C3CC3)cc2)CCCN1c1cnc(C(N)=O)c(Nc2cnn(C)c2C(F)(F)F)n1 [Example D-276, 5-[(2R,3R)-3-(4-cyclopropylbenzamido)-2-methylpiperidin-1-yl]-3-{[1-methyl-5-(trifluoromethyl)-1H-pyrazol-4-yl]amino}pyrazine-2-carboxamide] | 1000 to 10000 | > 10000
C[C@@H]1[C@H](NC(=O)c2ccc(C3CC3)cc2)CCCN1c1cnc(C(N)=O)c(Nc2cn(C)nc2C(F)(F)F)n1 [Example D-278, 5-[(2R,3R)-3-(4-cyclopropylbenzamido)-2-methylpiperidin-1-yl]-3-{[1-methyl-3-(trifluoromethyl)-1H-pyrazol-4-yl]amino}pyrazine-2-carboxamide] | > 10000 | > 10000
C[C@@H]1[C@H](NC(=O)c2ccc(C3CC3)cc2)CCCN1c1cnc(C(N)=O)c(Nc2cnn(C)c2F)n1 [Example D-290, 5-[(2R,3R)-3-(4-cyclopropylbenzamido)-2-methylpiperidin-1-yl]-3-[(5-fluoro-1-methyl-1H-pyrazol-4-yl)amino]pyrazine-2-carboxamide] | 10 to 100 | 1000 to 10000
C[C@@H]1[C@H](NC(=O)c2ccc(C(C)(C)C)cc2)CCCN1c1cnc(C(N)=O)c(Nc2ccc(OC3CCN(C)CC3)cc2)n1 [Example D-291, 5-[(2R,3R)-3-(4-tert-butylbenzamido)-2-methylpiperidin-1-yl]-3-({4-[(1-methylpiperidin-4-yl)oxy]phenyl}amino)pyrazine-2-carboxamide] | ≤ 10 | 10 to 100
C[C@@H]1[C@H](NC(=O)c2ccc(C(C)(C)C#N)cc2)CCCN1c1cnc(C(N)=O)c(Nc2ccc(OC3CCN(C)CC3)cc2)n1 [Example D-292, 5-[(2R,3R)-3-[4-(1-cyano-1-methylethyl)benzamido]-2-methylpiperidin-1-yl]-3-({4-[(1-methylpiperidin-4-yl)oxy]phenyl}amino)pyrazine-2-carboxamide] | ≤ 10 | 10 to 100
C[C@@H]1[C@H](NC(=O)c2ccc(C3CC3)cc2)CCCN1c1cnc(C(N)=O)c(Nc2cnn(C3CCN(CC(F)(F)F)CC3)c2)n1 [Example D-293, 5-[(2R,3R)-3-(4-cyclopropylbenzamido)-2-methylpiperidin-1-yl]-3-({1-[1-(2,2,2-trifluoroethyl)piperidin-4-yl]-1H-pyrazol-4-yl}amino)pyrazine-2-carboxamide] | ≤ 10 | > 10000
C[C@@H]1[C@H](NC(=O)c2ccc(C3CC3)nc2)CCCN1c1cnc(C(N)=O)c(Nc2ccc(OC3CCN(C)CC3)cc2)n1 [Example D-294, 5-[(2R,3R)-3-(6-cyclopropylpyridine-3-amido)-2-methylpiperidin-1-yl]-3-({4-[(1-methylpiperidin-4-yl)oxy]phenyl}amino)pyrazine-2-carboxamide] | ≤ 10 | 10 to 100
CC(=O)N1CCN(c2ccc(Nc3nc(N4CCC[C@@H](NC(=O)c5ccc(C6CC6)cc5)[C@H]4C)cnc3C(N)=O)cc2)CC1 [Example D-295, 3-{[4-(4-acetylpiperazin-1-yl)phenyl]amino}-5-[(2R,3R)-3-(4-cyclopropylbenzamido)-2-methylpiperidin-1-yl]pyrazine-2-carboxamide] | ≤ 10 | 10 to 100
CC(=O)N1CCC(c2ccc(Nc3nc(N4CCC[C@@H](NC(=O)c5ccc(C6CC6)cc5)[C@H]4C)cnc3C(N)=O)cc2)CC1 [Example D-296, 3-{[4-(1-acetylpiperidin-4-yl)phenyl]amino}-5-[(2R,3R)-3-(4-cyclopropylbenzamido)-2-methylpiperidin-1-yl]pyrazine-2-carboxamide] | ≤ 10 | 100 to 1000
C[C@@H]1[C@H](NC(=O)c2ccc(C3CC3)cn2)CCCN1c1cnc(C(N)=O)c(Nc2ccc(OC3CCN(C)CC3)cc2)n1 [Example D-297, 5-[(2R,3R)-3-(5-cyclopropylpyridine-2-amido)-2-methylpiperidin-1-yl]-3-({4-[(1-methylpiperidin-4-yl)oxy]phenyl}amino)pyrazine-2-carboxamide] | ≤ 10 | 10 to 100
C[C@@H]1[C@H](NC(=O)c2ccc(C(C)(C)O)cc2)CCCN1c1nnc(C(N)=O)c(Nc2cnn(C)c2)n1 [Example D-298, 3-[(2R,3R)-3-[4-(2-hydroxypropan-2-yl)benzamido]-2-methylpiperidin-1-yl]-5-[(1-methyl-1H-pyrazol-4-yl)amino]-1,2,4-triazine-6-carboxamide] | ≤ 10 | 10 to 100

Other lines, results leading:

IC50 (BTK-WT) [nM] | IC50 (LCK) [nM] | SMILES
≤ 10 | 100 to 1000 | C[C@@H]1[C@H](NC(=O)c2ccc(C3CC3)cc2)CCCN1c1cnc(C(N)=O)c(Nc2cnn(C3CCOCC3)c2)n1 [Example D-274, 5-[(2R,3R)-3-(4-cyclopropylbenzamido)-2-methylpiperidin-1-yl]-3-{[1-(oxan-4-yl)-1H-pyrazol-4-yl]amino}pyrazine-2-carboxamide]
≤ 10 | 1000 to 10000 | C[C@@H]1[C@H](NC(=O)c2ccc(C3CC3)cc2)CCCN1c1cnc(C(N)=O)c(Nc2cnn(C(F)F)c2)n1 [Example D-275, 5-[(2R,3R)-3-(4-cyclopropylbenzamido)-2-methylpiperidin-1-yl]-3-{[1-(difluoromethyl)-1H-pyrazol-4-yl]amino}pyrazine-2-carboxamide]
≤ 10 | 10 to 100 | C[C@@H]1[C@H](NC(=O)c2ccc(C3CC3)cc2)CCCN1c1nnc(C(N)=O)c(Nc2cnn(C)c2)n1 [Example D-277, 3-[(2R,3R)-3-(4-cyclopropylbenzamido)-2-methylpiperidin-1-yl]-5-[(1-methyl-1H-pyrazol-4-yl)amino]-1,2,4-triazine-6-carboxamide]
≤ 10 | 100 to 1000 | C[C@@H]1[C@H](NC(=O)c2ccc(C3CC3)cc2)CCCN1c1cnc(C(N)=O)c(Nc2cnn(C3CC3)c2)n1 [Example D-279, 3-[(1-cyclopropyl-1H-pyrazol-4-yl)amino]-5-[(2R,3R)-3-(4-cyclopropylbenzamido)-2-methylpiperidin-1-yl]pyrazine-2-carboxamide]
≤ 10 | < 10 | C[C@@H]1[C@H](NC(=O)c2ccc(C3CC3)cc2)CCCN1c1cnc(C(N)=O)c(Nc2cnn(C3CCNCC3)c2)n1 [Example D-280, 5-[(2R,3R)-3-(4-cyclopropylbenzamido)-2-methylpiperidin-1-yl]-3-{[1-(piperidin-4-yl)-1H-pyrazol-4-yl]amino}pyrazine-2-carboxamide]
≤ 10 | 100 to 1000 | C[C@@H]1[C@H](NC(=O)c2ccc(C3CC3)cc2)CCCN1c1cnc(C(N)=O)c(Nc2cnn(CCO)c2)n1 [Example D-281, 5-[(2R,3R)-3-(4-cyclopropylbenzamido)-2-methylpiperidin-1-yl]-3-{[I-(2-hydroxyethyl)-1H-pyrazol-4-yl]amino}pyrazine-2-carboxamide]
≤ 10 | 100 to 1000 | C[C@@H]1[C@H](NC(=O)c2ccc(C3CC3)cc2)CCCN1c1cnc(C(N)=O)c(Nc2cn[nH]c2)n1 [Example D-282, 5-[(2R,3R)-3-(4-cyclopropylbenzamido)-2-methylpiperidin-1-yl]-3-[(1H-pyrazol-4-yl)amino]pyrazine-2-carboxamide]
≤ 10 | 10 to 100 | CC(=O)N1CCC(n2cc(Nc3nc(N4CCC[C@@H](NC(=O)c5ccc(C6CC6)cc5)[C@H]4C)cnc3C(N)=O)cn2)CC1 [Example D-283, 3-{[1-(1-acetylpiperidin-4-yl)-1H-pyrazol-4-yl]amino}-5-[(2R,3R)-3-(4-cyclopropylbenzamido)-2-methylpiperidin-1-yl]pyrazine-2-carboxamide]
≤ 10 | 10 to 100 | C[C@@H]1[C@H](NC(=O)c2ccc(C3CC3)cc2)CCCN1c1cnc(C(N)=O)c(Nc2cnn(-c3ccncc3)c2)n1 [Example D-284, 5-[(2R,3R)-3-(4-cyclopropylbenzamido)-2-methylpiperidin-1-yl]-3-{[1-(pyridin-4-yl)-1H-pyrazol-4-yl]amino}pyrazine-2-carboxamide]
≤ 10 | 10 to 100 | C[C@@H]1[C@H](NC(=O)c2ccc(C(C)(C)C)cc2)CCCN1c1nnc(C(N)=O)c(Nc2cnn(C)c2)n1 [Example D-285, 3-[(2R,3R)-3-(4-tert-butylbenzamido)-2-methylpiperidin-1-yl]-5-[(1-methyl-1H-pyrazol-4-yl)amino]-1,2,4-triazine-6-carboxamide]
≤ 10 | 100 to 1000 | C[C@@H]1[C@H](NC(=O)N(C)C)CCCN1c1nnc(C(N)=O)c(Nc2cnn(C)c2)n1 [Example D-286, 3-[(2R,3R)-3-[(dimethylcarbamoyl)amino]-2-methylpiperidin-1-yl]-5-[(1-methyl-1H-pyrazol-4-yl)amino]-1,2,4-triazine-6-carboxamide]
≤ 10 | 100 to 1000 | C[C@@H]1[C@H](NC(=O)c2ccc(C3CC3)cc2)CCCN1c1cnc(C(N)=O)c(Nc2cnn(CC#N)c2)n1 [Example D-287, 3-{[1-(cyanomethyl)-1H-pyrazol-4-yl]amino}-5-[(2R,3R)-3-(4-cyclopropylbenzamido)-2-methylpiperidin-1-yl]pyrazine-2-carboxamide]
≤ 10 | 100 to 1000 | C[C@@H]1[C@H](NC(=O)c2ccc(C3CC3)cc2)CCCN1c1cnc(C(N)=O)c(Nc2cnn(C3CCN(C(=O)C4CC4)CC3)c2)n1 [Example D-288, 3-{[1-(1-cyclopropanecarbonylpiperidin-4-yl)-1H-pyrazol-4-yl]amino}-5-[(2R,3R)-3-(4-cyclopropylbenzamido)-2-methylpiperidin-1-yl]pyrazine-2-carboxamide]
≤ 10 | 10 to 100 | C[C@@H]1[C@H](NC(=O)c2ccc(C3CC3)cc2)CCCN1c1cnc(C(N)=O)c(Nc2cnn(C3CCN(C(=O)C4(C)COC4)CC3)c2)n1 [Example D-289, 5-[(2R,3R)-3-(4-cyclopropylbenzamido)-2-methylpiperidin-1-yl]-3-({1-[1-(3-methyloxetane-3-carbonyl)piperidin-4-yl]-1H-pyrazol-4-yl}amino)pyrazine-2-carboxamide]
